Assay results as given in patent US11498928B2, “Macrocyclic spiroethers as Mcl-1 inhibitors” (ASCENTAGE PHARMA (SUZHOU) CO., LTD., priority 2019, dated 2022).
Where two headings read alike, the source gives them in different places.

Assays:
[1] = biological target: T1, Mcl-1 protein (residues 171-323) (Homo sapiens, UniProt Q07820); test: Inhibition of Mcl-1 by fluorescence polarization (FP) competitive binding assay with FAM-Bid tracer; settings: 2 nM FAM-Bid, 20 nM Mcl-1, 30 min
T1 construct: Tag-free Mcl-1 protein (residues 171-323) was used in the FP assay
T1 sequence (Q07820 171-323): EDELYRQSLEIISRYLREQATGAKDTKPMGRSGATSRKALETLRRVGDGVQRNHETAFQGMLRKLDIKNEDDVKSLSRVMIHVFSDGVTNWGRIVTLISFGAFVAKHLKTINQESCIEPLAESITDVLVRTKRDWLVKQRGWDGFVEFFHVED
Procedure, shortened: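 Ten-point compound titrations compete against 2 nM fluorescein-Bid for 20 nM Mcl-1 (171-323, untagged). Incubation 30 min RT in PBS buffer with BGG and Triton, 5% DMSO final. mP reduction fitted by sigmoidal nonlinear regression for IC50.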

[2] = Pharmacokinetic studies in mice (IV and PO); type: in vivo; settings: for F: PO 10 mg/kg vs IV 2 mg/kg; for AUC(0-inf) / AUC(0-t) / clearance / half-life / Cmax / MRT last / Vd / Tmax / Vd/F: mouse, plasma; for MRT last: read-out: MRT0-last; for Vd: read-out: Vss; for Vd/F: read-out: Vz/F
Protocol: Administration: Mice in the IV group was dosed at 2 mg/kg (20% PEG 400+10% Cremophor EL+70% PBS 7.4) via tail vein injection (N=9). Mice in the PO group was dosed at 10 mg/kg (20% PEG 400+10% Cremophor EL+70% PBS 7.4) via oral gavage (N=9). All the mice were fasted overnight before dosing and had free access to food 4 hr post dosing.
Sampling: The animal was restrained manually at the designated time points (0.083, 0.25, 0.5, 1, 2, 4, 6, 8 and 24 hr), approximately 110 μL of blood sample was collected via retro-orbital puncture or cardiac puncture for terminal bleeding under the anesthesia with Isoflurane inhalation into K2EDTA tubes. The blood samples were maintained in wet ice first and centrifuged to obtain plasma (2000 g, 4° C., 5 min) within 15 minutes post sampling. All the plasma samples were stored at approximately −70° C. until analysis.

NCI-H929 cells = test: Cell viability assay (NCI-H929 cells), CCK-8; type: cell-based; settings: 5% FBS
Procedure, shortened: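 Viability of NCI-H929 cells was measured using the Cell Counting Kit-8. After 24 hrs of compound exposure, 10 μL of CCK-8 solution per well was incubated for 1-4 hours, and absorbance was read at 450 nm on a BioTek Synergy 1MF. Readings were normalized to vehicle (DMSO) cells, and IC50 values were derived by nonlinear regression in GraphPad Prism 6.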

OPM-2 cells = test: Cell viability assay (OPM-2 cells), CCK-8; type: cell-based; settings: 5% FBS
Procedure, shortened: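 Viability read by CCK-8 absorbance (450 nm, 4 h reagent incubation) after 24 h compound exposure of 20000 OPM-2 cells per well at 37 °C. IC50 fitted by nonlinear regression on vehicle-normalized signal.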

[3] = IV 2 mg/kg, read-out: C0/Cmax (C0)
[4] = PO 10 mg/kg, read-out: C0/Cmax (Cmax)

| SMILES | IC50 [1] [nM] | F [2] [%] | AUC(0-inf) ([2]; IV 2 mg/kg) [ng·h/mL] | AUC(0-t) ([2]; IV 2 mg/kg) [ng·h/mL] | clearance ([2]; IV 2 mg/kg) [mL/min/kg] | half-life ([2]; IV 2 mg/kg) [h] | Cmax [2, 3] [ng/mL] | MRT last ([2]; IV 2 mg/kg) [h] | Vd ([2]; IV 2 mg/kg) [L/kg] | AUC(0-inf) ([2]; PO 10 mg/kg) [ng·h/mL] | AUC(0-t) ([2]; PO 10 mg/kg) [ng·h/mL] | Tmax ([2]; PO 10 mg/kg) [h] | half-life ([2]; PO 10 mg/kg) [h] | Cmax [2, 4] [ng/mL] | MRT last ([2]; PO 10 mg/kg) [h] | Vd/F ([2]; PO 10 mg/kg) [L/kg] | IC50 (NCI-H929 cells; Homo sapiens, NCI-H929, 24 h) [nM] | IC50 (OPM-2 cells; Homo sapiens, OPM-2, 24 h) [nM] | IC50 (NCI-H929 cells; 24 h) [nM] | IC50 (OPM-2 cells; 24 h) [nM] |
| --- | --- | --- | --- | --- | --- | --- | --- | --- | --- | --- | --- | --- | --- | --- | --- | --- | --- | --- | --- | --- |
| CO[C@H]1C2=CC(C)(C2)[C@H](C)CS(=O)(=O)NC(=O)c2ccc3c(c2)N(C[C@@H]2CC[C@H]21)C[C@@]1(CCCc2cc(Cl)ccc21)CO3 (mixture of isomers) [13 (mixture)] | 21 | 57.2 | 5200 | 4780 | 6.4 | 6.5 | 861 | 6.2 | 3.2 | 14900 | 14400 | 4 | 4.5 | 1270 | 6.6 | 4.4 | 89 | 348 | – | – |
| COCCO[C@H]1C2=CC(C2)[C@H](C)[C@@H](C)S(=O)(=O)NC(=O)c2ccc3c(c2)N(C[C@@H]2CC[C@H]21)C[C@@]1(CCCc2cc(Cl)ccc21)CO3 (mixture of isomers) [16 (mixture)] | 9 | 70.5 | 2440 | 2380 | 13.6 | 1.6 | 1260 | 1.9 | 1.7 | 8620 | 8360 | 2 | 4.9 | 1690 | 4.5 | 8.3 | 37 | 136 | – | – |
| CO[C@H]1C2=CC(C2)[C@H](C)[C@@H](C)S(=O)(=O)NC(=O)c2ccc3c(c2)N(C[C@@H]2CC[C@H]21)C[C@@]1(CCCc2cc(Cl)cc(F)c21)CO3 (single isomer, unassigned) [20 (isomer 1)] | 12 | 60.2 | 7500 | 7350 | 4.45 | 6.7 | 6090 | 2.4 | 0.8 | 22600 | 22300 | 1 | 4.9 | 4860 | 3.6 | 3.1 | 2000 | 2690 | – | – |
| CO[C@H]1C2=CC(C2)[C@H](C)CS(=O)(=O)NC(=O)c2ccc3c(c2)N(C[C@@H]2CC[C@H]21)C[C@@]1(CCCc2cc(Cl)ccc21)CO3 (single isomer, unassigned) [Cpd. No. 14 (Isomer 1)] | 4.7 | 134.6 | 4720 | 4690 | 7.07 | 3.6 | 1510 | 3.9 | 1.7 | 31800 | 31400 | 2 | 3.6 | 3920 | 5.6 | 1.6 | – | – | 26 | 208 |
| CO[C@H]1C2=C[C@@H](C2)[C@H](C)[C@@H](C)S(=O)(=O)NC(=O)c2ccc3c(c2)N(C[C@@H]2CC[C@H]21)C[C@@]1(CCCc2cc(Cl)ccc21)CO3 (single isomer, unassigned) [Cpd. No. 15 (isomer 1)] | 9.7 | 84.7 | 7870 | 7580 | 4.23 | 4.9 | 2740 | 4.8 | 1.5 | 33300 | 33000 | 2 | 3.4 | 2720 | 6.1 | 1.5 | 18 | 84 | – | – |
| C[C@@H]1[C@@H](C)S(=O)(=O)NC(=O)c2ccc3c(c2)N(C[C@@H]2CC[C@H]2[C@@H](OCCN2CCN(C)CC2=O)C2=C[C@H]1C2)C[C@@]1(CCCc2c1ccc(Cl)c2F)CO3 [compound 91, (1S,11′R,12′S,13′R,16′R,16a′R,18a′R)-6-chloro-5-fluoro-11′,12′-dimethyl-16′-(2-(4-methyl-2-oxopiperazin-1-yl)ethoxy)-3,4,12′,13′,16′,16a′,17′,18′,18a′,19′-decahydro-1′H,2H,3′H,11′H-spiro[naphthalene-1,2′-[5,7]etheno[13,15]methanocyclobuta[i][1,4]oxazepino[3,4-f][1]thia[2,7]diazacyclohexadecin]-8′(9′H)-one 10′,10′-dioxide] | 15 | – | – | – | – | – | – | – | – | – | – | – | – | – | – | – | 16 | 59 | – | – |
| C[C@@H]1[C@@H](C)S(=O)(=O)NC(=O)c2ccc3c(c2)N(C[C@@H]2CC[C@H]2[C@@H](OCCN2CCCS2(=O)=O)C2=C[C@H]1C2)C[C@@]1(CCCc2c1ccc(Cl)c2F)CO3 [compound 92, (1S,11′R,12′S,13′R,16′R,16a′R,18a′R)-6-chloro-16′-(2-(1,1-dioxidoisothiazolidin-2-yl)ethoxy)-5-fluoro-11′,12′-dimethyl-3,4,12′,13′,16′,16a′,17′,18′,18a′,19′-decahydro-1′H,2H,3′H,11′H-spiro[naphthalene-1,2′-[5,7]etheno[13,15]methanocyclobuta[i][1,4]oxazepino[3,4-f][1]thia[2,7]diazacyclohexadecin]-8′(9′H)-one 10′,10′-dioxide] | 14 | – | – | – | – | – | – | – | – | – | – | – | – | – | – | – | 59 | 44 | – | – |
| CO[C@@]1(CN2CCC(N3CCOCC3)CC2)C2=C[C@@H](C2)[C@H](C)[C@@H](C)S(=O)(=O)NC(=O)c2ccc3c(n2)N(C[C@@H]2CC[C@H]21)C[C@@]1(CCCc2c1ccc(Cl)c2F)CO3 [compound 93, (1S,11′R,12′S,13′R,16′R,16a′R,18a′R)-6-chloro-5-fluoro-16′-methoxy-11′,12′-dimethyl-16′-((4-morpholinopiperidin-1-yl)methyl)-3,4,12′,13′,16′,16a′,17′,18′,18a′,19′-decahydro-1′H,2H,3′H,11′H-spiro[naphthalene-1,2′-[5,7]etheno[13,15]methanocyclobuta[i][1,4]oxazepino[3,4-f][1]thia[2,5,7]triazacyclohexadecin]-8′(9′H)-one 10′,10′-dioxide] | 19 | – | – | – | – | – | – | – | – | – | – | – | – | – | – | – | 11 | 71 | – | – |
| C[C@@H]1[C@@H](C)S(=O)(=O)NC(=O)c2ccc3c(c2)N(C[C@@H]2CC[C@H]2[C@@H](OCc2ccccn2)C2=C[C@H]1C2)C[C@@]1(CCCc2c1ccc(Cl)c2F)CO3 [compound 94, (1S,11′R,12′S,13′R,16′R,16a′R,18a′R,E)-6-chloro-5-fluoro-11′,12′-dimethyl-16′-(pyridin-2-ylmethoxy)-3,4,12′,13′,16′,16a′,17′,18′,18a′,19′-decahydro-1′H,2H,3′H,11′H-spiro[naphthalene-1,2′-[5,7]etheno[13,15]methanocyclobuta[i][1,4]oxazepino[3,4-f][1]thia[2,7]diazacyclohexadecin]-8′(9′H)-one 10′,10′-dioxide] | 48 | – | – | – | – | – | – | – | – | – | – | – | – | – | – | – | 200 | 96 | – | – |
| C[C@@H]1[C@@H](C)S(=O)(=O)NC(=O)c2ccc3c(c2)N(C[C@@H]2CC[C@H]2[C@@H](OCCN2CCC(F)(F)CC2)C2=C[C@H]1C2)C[C@@]1(CCCc2c1ccc(Cl)c2F)CO3 [compound 95] | 23 | – | – | – | – | – | – | – | – | – | – | – | – | – | – | – | 44 | 42 | – | – |
